Assay results: PMC12207360, “Hyperpolarization Modulation of the T‐Type hCav3.2 Channel by Human Synenkephalin [1–53], a Shrew Neurotoxin Analogue without Paralytic Effects” (Angewandte Chemie (International Ed. in English), 2025)
Where no end group is shown, it is not given here.

What was measured:
[1] = test system: human T-type voltage-gated calcium channel (hCav3.2); test: Whole-cell patch-clamp of voltage-gated Ca2+ currents in HEK293T cells expressing hCav3.2; assay type: cell-based; conditions: 0.74 µM, n = 5
Protocol: Normalized conductance (G/G max) was generated for both data sets, fit to a Boltzmann equation, and is shown as data ± S.E.M. (n = 5). Statistical analyses were performed using Dunnett's multiple comparison tests. ^* p < 0.05 versus control. […]
Electrophysiological assays were done on human Cav3.2 channel, which was expressed on human embryonic kidney 293T (HEK293T) cells using Lipophectamine® 3000 transfection reagent. A pcDNA3 plasmid construct containing the complete sequence coding the human α1H-subunit of the Cav3.2 channel flanked by a green fluorescent protein was kindly provided by Prof. Edward Perez–Reyes (University of Virginia, Charlottesville, Virginia, USA).S1 Vo l t a g e-gated Ca2+ currents were recorded by the whole-cell patch-clamp technique, as previously described.28,S2 This recording was performed in the whole-cell conﬁguration using an Axopatch 200B Ampliﬁer (Axon CNS, Molecular Devices) at a holding potential of –90 mV. Cells were depolarized from the –90 mV holding potential to +80 mV with +10 mV voltage steps of 200 ms. The current amplitude was measured at the peak. The current density was determined with the cell capacitance to establish the density-voltage curves.
The currents were ﬁltered at 2 kHz and sampled at 5 kHz using an A/D converter, the Digidata 1440A (Axon CNS, Molecular Devices). The leak was subtracted automatically by a P/4 protocol (pclamp10, Axon CNS, Molecular Devices). For the recording Ca2+ currents, the bath solution contained 125 mM N-methyl-D-glucamine, 5 mM 4-aminopyridine, 20 mM tetraethylammonium chloride, 2 mM CaCl2, 2 mM MgCl2, and 10 mM D-glucose and was buffered to pH 7.4 with 10 mM HEPES. The patch pipettes were ﬁlled with solution containing 130 mM CsCl, 10 mM EGTA, 3 mM Mg–AT P, a n d 0 . 4 m M Li–GTP with the pH adjusted to 7.2 by 25 mM HEPES. Statistical analyses were performed using Dunnett’s multiple comparison tests. *, p < 0.05 versus control.
(§1) Circular dichroism spectrometry and stereostructure prediction of hSYN. […]
(§2) In brief, synthetic hSYN [1–53] (2) was dissolved in 50 mM KHPO4, pH 7.0 (ﬁnal concentration: 20 μM) in a 1 mm pathlength cell. The spectrum consisted of ﬁve scans acquired with a scan rate of 20 nm/min and a digital integration time of 2 sec. […]
(§3) Schrödinger, LLC) was used for calculation of surface charge and final image processing which suitable for scientific

[2] = test system: mealworms (larva of Zophobas atratus); test: Mealworm paralysis bioassay, i.p. injection; assay type: in vivo; conditions: for Paralyzed/total numbers: 100 µL per 1 g bodyweight, immediate lower-body paralysis
Protocol: Paralytic activity against mealworms was examined by using synthetic 2 dissolved in saline with mealworms (larva of Zophobas atratus, body weight: 0.7–1.0 g), as described previously.28 Synthetic hSYN was injected into the abdomen of mealworms and observed immediate lower-body paralysis (injection volume: 100 μL per 1.0 g mealworm bodyweight).
Phosphate buffered saline (PBS) was used as a control. […]
HEPES. The patch pipettes were ﬁlled with solution containing 130 mM CsCl, 10 mM EGTA, 3 mM Mg–AT P, a n d 0 . 4 m M […]
as §1, §2, §3

several enzymes = test: Susceptibility to several enzymes / degradation; conditions: intact hSYN; compared with paralytic effect of BPP2 on mealworms
Protocol: To determine the connectivity of disulfide bonds in synthetic 2, enzymatic digestion and subsequent fragment peptide analysis were performed. […] However, due to high proteolytic stability, analysis of these degraded products provided little information on the disulfide bond connectivity in 2. To perform stepwise S‐alkylation with limiting reduction of disulfide bonds,^[ [52], [53] ^] 2 was denatured with 6 M aq. guanidine hydrochloride (GdmCl)/0.1 M aq. citrate, followed by tris(2‐carboxyethyl)phosphine (TCEP) reduction and Michael addition to N‐ethylmaleimide (NEM). As a result, we obtained six kinds of S‐alkylated products (2SS‐a/b/c and 1SS‐a/b/c) with one or two disulfide bonds cleaved, respectively, along with unreacted 2 (3SS) and a fully S‐alkylated product (0SS) (Scheme 1a and Figure S4a). HPLC‐purified 1SS‐a (3) and 1SS‐b (4), which have different patterns of four Cys(S‐Nem) residues, were then reduced with DTT and alkylated with iodoacetamide.

Substance: human synenkephalin [1–53] (ECSQDCATCSYRLVRPADINFLACVMECEGKLPSLKIWETCKELLQLSKPELP; disulfide (positions not given here); also: Type II disulfides, places not given here; UniProt P01210 25-77, looked up, fragment) [compound 2, human synenkephalin N-terminal part [1–53], three disulfide bonds Cys(I)–Cys(V), Cys(II)–Cys(IV), Cys(III)–Cys(VI)]
- lowest current density peak ([1]; at −30 mV (control ca. −59 pA/pF at −10 mV)): ca. −42 pA/pF
- voltage of lowest current density peak ([1]; control peak at −10 mV): −30 mV
- current density at 0 to +20 mV ([1]; suggesting a block at higher membrane depolarization): significantly reduced
- hyperpolarization shift of hCav3.2 activation ([1]; whole-cell patch clamp, HEK293T cells, holding potential –90 mV, pH 7.4, Boltzmann fit, ± S.E.M., p < 0.05 versus control): −15 mV
- Paralyzed/total numbers ([2]; 5.0 µg/g bodyweight): 0/4
- Paralyzed/total numbers ([2]; 15 µg/g bodyweight): 0/3
- Paralyzed/total numbers ([2]; 50 µg/g bodyweight): 0/4
- paralytic effect on mealworms ([2]; even at 50 µg g−1 body weight): no paralytic effects on mealworms
- enzymatic degradation (several enzymes): susceptible to several enzymes, its degradation was much slower than the paralytic effect of BPP2 on mealworms
